Patent US8642594B2, “Substituted thieno[2,3-d]pyrimidines as HSP90 inhibitors” (Vernalis (R&D) Limited, priority 2003, dated 2014)

Target: T1, Human full-length Hsp90 (Homo sapiens, UniProt P08238)
T1 construct: E. coli expressed human full-length HSP90 protein, purified >95%; made in house; host or cells: E. coli
Test: Fluorescence polarization assay (competitive binding to HSP90, probe RBT0045864-FAM)
Conditions: not given
Summary of the method: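 Competitive fluorescence polarization: test compound displaces FAM-labelled probe RBT0045864-FAM (200 nM working solution) from HSP90 after equilibration, and anisotropy change is measured. Compounds serially diluted; BSA-containing buffer; standard compound as positive control; Z′ from zero and positive controls.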

T1 sequence (P08238 whole entry): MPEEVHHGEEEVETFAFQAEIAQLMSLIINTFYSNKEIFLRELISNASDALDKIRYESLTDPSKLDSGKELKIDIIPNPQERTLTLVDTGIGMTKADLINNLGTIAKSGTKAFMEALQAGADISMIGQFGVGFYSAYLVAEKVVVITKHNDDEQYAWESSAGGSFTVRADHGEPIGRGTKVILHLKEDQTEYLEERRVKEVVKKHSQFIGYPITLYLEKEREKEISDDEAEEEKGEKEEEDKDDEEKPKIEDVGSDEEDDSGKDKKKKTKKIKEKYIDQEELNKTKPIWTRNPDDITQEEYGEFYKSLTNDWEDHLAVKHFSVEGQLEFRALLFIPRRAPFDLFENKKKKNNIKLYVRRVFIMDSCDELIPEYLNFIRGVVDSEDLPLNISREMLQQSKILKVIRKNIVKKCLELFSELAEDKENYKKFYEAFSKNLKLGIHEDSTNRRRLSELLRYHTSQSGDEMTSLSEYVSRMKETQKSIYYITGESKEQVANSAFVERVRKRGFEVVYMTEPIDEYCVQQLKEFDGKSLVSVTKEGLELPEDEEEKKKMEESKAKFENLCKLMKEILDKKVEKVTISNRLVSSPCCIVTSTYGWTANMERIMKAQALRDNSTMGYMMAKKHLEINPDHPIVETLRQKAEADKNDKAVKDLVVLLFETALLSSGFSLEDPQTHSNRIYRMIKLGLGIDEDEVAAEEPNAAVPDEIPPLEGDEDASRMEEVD

SMILES	IC50 [µM]
CCNC(=O)c1cc2c(-c3cc(OCCN(CC)CC)c(Cl)cc3Cl)nc(N)nc2s1 [Example 235, 2-Amino-4-[2,4-dichloro-5-(2-diethylamino-ethoxy)-phenyl]-thieno[2,3-d]pyrimidine-6-carboxylic acid ethyl amide]	< 10
CCNC(=O)c1cc2c(-c3cc(OCCN4CCN(C)CC4)c(Cl)cc3Cl)nc(N)nc2s1 [Example 246]	< 10
CCNC(=O)c1cc2c(-c3cc(OCCNCCOC)c(Cl)cc3Cl)nc(N)nc2s1 [Example 247]	< 10
CCNC(=O)c1cc2c(-c3cc(OCCN4CCC(F)(F)CC4)c(Cl)cc3Cl)nc(N)nc2s1 [Example 250]	< 10

Same assay, conditions: fluorescence polarization assay, activity range; read-out: Hsp90 FP IC50

SMILES	IC50 [µM]
CCCCOc1ccc(-c2nc(N)nc3sc(C(=O)OCC)cc23)c(C)c1 [Example 186]	> 10
CCOC(=O)c1cc2c(-c3ccc(OCC(C)C)cc3C)nc(N)nc2s1 [Example 189]	> 10
CCOC(=O)c1cc2c(-c3ccc(OCCN(CC)CC)cc3C)nc(N)nc2s1 [Example 190]	> 10
CCOC(=O)c1cc2c(-c3ccc(OCC(=O)OC(C)(C)C)cc3C)nc(N)nc2s1 [Example 192]	> 10
CCOC(=O)c1cc2c(-c3ccc(OCC(=O)O)cc3C)nc(N)nc2s1 [Example 193]	> 10
CCNC(=O)c1cc2c(-c3cc(CNCc4ccco4)ccc3C)nc(N)nc2s1 [Example 210]	< 10
CCNC(=O)c1cc2c(-c3cc(CNCc4ccc(C)o4)ccc3C)nc(N)nc2s1 [Example 211]	< 10
CCNC(=O)c1cc2c(-c3cc(CNCC4CCCO4)ccc3C)nc(N)nc2s1 (stereo not shown) [Example 212]	< 10
CCCCNCc1ccc(C)c(-c2nc(N)nc3sc(C(=O)NCC)cc23)c1 [Example 213]	< 10
CCNC(=O)c1cc2c(-c3cc(CNCCc4cccs4)ccc3C)nc(N)nc2s1 [Example 214]	< 10
CCNC(=O)c1cc2c(-c3cc(CNCCc4ccccc4)ccc3C)nc(N)nc2s1 [Example 215]	< 10
CCNC(=O)c1cc2c(-c3cc(CNCc4ccccn4)ccc3C)nc(N)nc2s1 [Example 216]	< 10
CCNC(=O)c1cc2c(-c3cc(CNCc4cccnc4)ccc3C)nc(N)nc2s1 [Example 217]	< 10
CCNC(=O)c1cc2c(-c3cc(CNCC(C)C)ccc3C)nc(N)nc2s1 [Example 218]	< 10
CCNC(=O)c1cc2c(-c3cc(CNCC(N)=O)ccc3C)nc(N)nc2s1 [Example 219]	< 10
CCNC(=O)c1cc2c(-c3cc(CNCC4CCCO4)ccc3C)nc(N)nc2s1 (stereo not shown) [Example 223]	< 10

SMILES	IC50 [µM]
CCCNCc1cc(-c2nc(N)nc3sc(C(=O)NCC)cc23)c(C)cc1C [Example 231]	< 10
CCNC(=O)c1cc2c(-c3cc(CNCc4ccccc4)c(C)cc3C)nc(N)nc2s1 [Example 232]	< 10
CCNC(=O)c1cc2c(-c3cc(CNCc4cccs4)c(C)cc3C)nc(N)nc2s1 [Example 233]	< 10
CCNC(=O)c1cc2c(-c3cc(CNCCO)c(C)cc3C)nc(N)nc2s1 [Example 234]	< 10
CCNC(=O)c1cc2c(-c3cc(OCCN4CCOCC4)c(Cl)cc3Cl)nc(N)nc2s1 [Example 236, 2-Amino-4-[2,4-dichloro-5-(2-morpholin-4-yl-ethoxy)-phenyl]-thieno[2,3-d]pyrimidine-6-carboxylic acid ethyl amide]	< 10
CCN(CC)CCOc1cc(-c2nc(N)nc3sc(C(=O)NC(C)C)cc23)c(Cl)cc1Cl [Example 237, 2-Amino-4-[2,4-dichloro-5-(2-diethylamino-ethoxy)-phenyl]-thieno[2,3-d]pyrimidine-6-carboxylic acid isopropyl amide]	< 10
CCNC(=O)c1cc2c(-c3cc(OCCN4CCCCC4)c(Cl)cc3Cl)nc(N)nc2s1 [Example 238]	< 10
CCOC(=O)c1cc2c(-c3cc(OCc4ccccc4)c(Cl)cc3Cl)nc(N)nc2s1 [Example 239]	< 10
CCNC(=O)c1cc2c(-c3cc(O)c(Cl)cc3Cl)nc(N)nc2s1 [Example 240]	< 10
CCNC(=O)c1cc2c(-c3cc(OCc4ccccc4)c(Cl)cc3Cl)nc(N)nc2s1 [Example 241]	< 10
CC(C)NC(=O)c1cc2c(-c3cc(OCc4ccccc4)c(Cl)cc3Cl)nc(N)nc2s1 [Example 242]	< 10
CCNC(=O)c1cc2c(-c3cccc(OCc4ccccc4)c3)nc(N)nc2s1 [Example 243]	< 10
CCNC(=O)c1cc2c(-c3cccc(O)c3)nc(N)nc2s1 [Example 244]	< 10
CCNC(=O)c1cc2c(-c3cc(OCCNC4CCCCC4)c(Cl)cc3Cl)nc(N)nc2s1 [Example 245]	< 10
CC(C)NC(=O)c1cc2c(-c3cc(O)c(Cl)cc3Cl)nc(N)nc2s1 [Example 248]	< 10
CCNC(=O)c1cc2c(-c3cc(OCCN4CCC(F)CC4)c(Cl)cc3Cl)nc(N)nc2s1 [Example 249]	< 10

The remaining lines, values ahead:

IC50 [µM]	SMILES
< 10	C=CCOc1ccc(-c2nc(N)nc3sc(C(=O)OCC)cc23)c(C)c1 [Example 187]
< 10	CCOC(=O)c1cc2c(-c3ccc(OCC#N)cc3C)nc(N)nc2s1 [Example 188]
< 10	CCOC(=O)c1cc2c(-c3ccc(OCC(N)=O)cc3C)nc(N)nc2s1 [Example 191]
< 10	CCOC(=O)c1cc2c(-c3ccc(OCCCO)cc3C)nc(N)nc2s1 [Example 194]
< 10	CCNC(=O)COc1ccc(-c2nc(N)nc3sc(C(=O)OCC)cc23)c(C)c1 [Example 195]
< 10	CCOC(=O)c1cc2c(-c3cc(C=O)ccc3C)nc(N)nc2s1 [Example 196, 2-Amino-4-(5-formyl-2-methyl-phenyl)-thieno[2,3-d]pyrimidine-6-carboxylic acid ethyl ester]
< 10	CCCNCc1ccc(C)c(-c2nc(N)nc3sc(C(=O)NCC)cc23)c1 [Example 197, 2-Amino-4-(2-methyl-5-propylaminomethyl-phenyl)-thieno[2,3-d]pyrimidine-6-carboxylic acid ethylamide]
< 10	CCOC(=O)c1cc2c(-c3cc(CNCCN4CCOCC4)ccc3C)nc(N)nc2s1 [Example 198]
< 10	CCNC(=O)c1cc2c(-c3cc(CNC4CCCC4)ccc3C)nc(N)nc2s1 [Example 199]
< 10	CCNC(=O)c1cc2c(-c3cc(CNCc4ccccc4)ccc3C)nc(N)nc2s1 [Example 200]
< 10	CCNC(=O)c1cc2c(-c3cc(CNCc4cccs4)ccc3C)nc(N)nc2s1 [Example 201]
< 10	CCNC(=O)c1cc2c(-c3cc(CNCCCOC)ccc3C)nc(N)nc2s1 [Example 202]
< 10	CCNC(=O)c1cc2c(-c3cc(CNC4CC4)ccc3C)nc(N)nc2s1 [Example 203]
< 10	CCNC(=O)c1cc2c(-c3cc(CNCCc4cnc[nH]4)ccc3C)nc(N)nc2s1 [Example 204]
< 10	CCNC(=O)c1cc2c(-c3cc(CNCCO)ccc3C)nc(N)nc2s1 [Example 205]
< 10	CCNCc1ccc(C)c(-c2nc(N)nc3sc(C(=O)NCC)cc23)c1 [Example 206]
< 10	CCNC(=O)c1cc2c(-c3cc(CNCc4ccc(S(N)(=O)=O)cc4)ccc3C)nc(N)nc2s1 [Example 207]
< 10	CCNC(=O)c1cc2c(-c3cc(CNCCC(N)=O)ccc3C)nc(N)nc2s1 [Example 208]
< 10	C=CCNCc1ccc(C)c(-c2nc(N)nc3sc(C(=O)NCC)cc23)c1 [Example 209]
